From patent US20050171101A1 (Fujisawa Pharmaceutical Co. Ltd., priority 2002, published 2005) come the findings set out here.

Counter-ions that a name gives are not always drawn.

The experiment deals with recombinant human PARP (Homo sapiens, UniProt P09874). Nature of the experiment: PARP inhibitory activity (In vitro assay). The class given is biochemical. The settings on record: 32P-NAD, 0.05 mM NAD, activated DNA, pH8.0, 15 minutes at room temperature. On the procedure: PARP inhibitory activity (In vitro assay)
Sequence of recombinant human PARP (P09874 whole entry): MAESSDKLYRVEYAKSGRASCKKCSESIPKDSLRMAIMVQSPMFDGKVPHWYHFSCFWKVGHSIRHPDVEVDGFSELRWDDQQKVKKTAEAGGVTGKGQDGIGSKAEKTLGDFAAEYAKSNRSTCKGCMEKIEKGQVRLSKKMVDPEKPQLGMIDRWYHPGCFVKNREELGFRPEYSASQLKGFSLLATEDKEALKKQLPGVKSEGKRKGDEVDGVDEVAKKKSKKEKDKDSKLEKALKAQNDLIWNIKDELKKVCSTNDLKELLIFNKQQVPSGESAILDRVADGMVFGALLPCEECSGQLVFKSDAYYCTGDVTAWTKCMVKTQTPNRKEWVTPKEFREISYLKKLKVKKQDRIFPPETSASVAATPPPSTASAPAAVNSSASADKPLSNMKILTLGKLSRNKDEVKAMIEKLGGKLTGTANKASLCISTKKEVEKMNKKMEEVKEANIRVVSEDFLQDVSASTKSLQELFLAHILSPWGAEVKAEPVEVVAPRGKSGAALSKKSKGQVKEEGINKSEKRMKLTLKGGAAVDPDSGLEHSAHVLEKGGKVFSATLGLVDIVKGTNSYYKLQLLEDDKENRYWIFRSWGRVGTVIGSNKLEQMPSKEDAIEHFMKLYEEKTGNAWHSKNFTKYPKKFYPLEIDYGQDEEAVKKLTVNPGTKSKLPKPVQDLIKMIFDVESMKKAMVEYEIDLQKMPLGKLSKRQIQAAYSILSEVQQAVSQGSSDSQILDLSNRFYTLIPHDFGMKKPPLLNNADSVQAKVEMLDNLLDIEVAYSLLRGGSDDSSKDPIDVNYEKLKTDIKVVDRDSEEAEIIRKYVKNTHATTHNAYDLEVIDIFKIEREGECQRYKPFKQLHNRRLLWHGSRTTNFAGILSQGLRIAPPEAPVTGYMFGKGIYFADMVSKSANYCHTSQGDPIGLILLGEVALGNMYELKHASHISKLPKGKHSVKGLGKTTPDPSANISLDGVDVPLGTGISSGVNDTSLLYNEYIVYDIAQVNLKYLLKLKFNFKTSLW
The recombinant human PARP (5.3 mg protein/ml) was incubated with a test compound in a 100 μl reaction buffer containing an indicated concentration of 1 mCi/ml ^32P-NAD, 50 mM Tris-HCl, 25 mM MgCl2, 1 mM DTT (dithiothreitol), 0.05 mM NAD (nicotinamide adenine dinucleotide) and 1 mg/ml activated DNA, pH8.0. Incubation was carried out for 15 minutes at a room temperature, and the reaction was stopped by addition of 200 μl of ice-cold 20% tricholoroacetic acid followed by rapid filtration through GF/B filters. The […] was treated with scintillation fluid and acid-insoluble counts were measured for quantification of unit activity. PARP inhibitory activity was calculated by using the following formula: PARP inhibitory activity (%)=[1-(count obtained with test compound)/(count obtained with vehicle only)]×100
Take `O=c1[nH]c2ccc(CCCN3CC=C(c4ccc(F)cc4)CC3)cc2c2ccccc12` [Example 2, 2-{3-[4-(4-fluorophenyl)-3,6-dihydro-1 (2H)-pyridyl]propyl}-6(5H)-phenanthridinone]: the IC50 is below 100 nM.
With `O=c1[nH]c2cc(CN3CC=C(c4ccc(Cl)cc4)CC3)ccc2c2c1CCCC2` [Example 15, 3-{[4-(4-Chlorophenyl)-3,6-dihydro-1(2H)-pyridyl]methyl}-7,8,9,10-tetrahydro-6(5H)-phenanthridinone] the figure was below 100 nM; with `Cc1ccc(C2CCN(Cc3ccc4c5c(c(=O)[nH]c4c3)CCCC5)CC2)cc1` [Example 30, 3-{[4-(4-methylphenyl)-1-piperidyl]methyl}-7,8,9,10-tetrahydro-6(5H)-phenanthridinone hydrochloride], below 100 nM.
With `O=c1[nH]c2cc(CN3CCC(O)(c4ccccc4)CC3)ccc2c2c1CCCC2` [Example 35, 3-[(4-hydroxy-4-phenyl-1-piperidyl)methyl]-7,8,9,10-tetrahydro-6(5H)-phenanthridinone hydrochloride] the figure was below 100 nM; with `O=c1[nH]c2c(Oc3ccccn3)cccc2c2c1CCCC2` [Example 42], below 100 nM; with `O=c1[nH]c2cc(CN3CCN(c4ccc(Cl)cn4)CC3)ccc2c2ccccc12` [Example 52, 3-{[4-(5-chloro-2-pyridyl)-1-piperazinyl]methyl}-6(5H)-phenanthridinone dihydrochloride], below 100 nM.
Then `O=c1[nH]c2cc(CN3CCCCC3)ccc2c2ccccc12` [Example 60, 3-(1-piperidylmethyl)-6(5H)-phenanthridinone], with below 100 nM; and `Cc1ccc(C2CCN(Cc3ccc4c(c3)[nH]c(=O)c3ccccc34)CC2)nc1` [Example 63, 3-{[4-(5-methyl-2-pyridyl)-1-piperidyl]methyl}-6(5H)-phenanthridinone], with below 100 nM.

A word on the IC50: it is the concentration that inhibits the measured activity by half.
